Reference: patent publication US20240252461A1, “COMPOSITIONS AND METHODS FOR TREATMENT OF DEMYELINATION” (priority 2018, published 2024)

Experiments:
MS = details: cited from earlier work
[1] = test system: Experimental Autoimmune Encephalomyelitis (EAE) model; experiment: Murine Experimental Autoimmune Encephalomyelitis (EAE) model of multiple sclerosis; type: in vivo, C57BL/6 mice; details: glatiramer acetate 200 μg SC on day 0, alone
Description: In this study, the therapeutic effect of treatment with glatiramer acetate (Copaxone®) alone or in combination with Zn-DFO on multiple sclerosis (MS) is tested, using the murine Experimental Autoimmune Encephalomyelitis (EAE) model.
EAE is induced in 8-week-old female C57BL/6 mice by subcutaneous (SC) injection of 125 μg of myelin oligodendrocyte glycoprotein 35-55 peptide (MOG35-55) emulsified in complete Freund's adjuvant (CFA) containing 5 mg/ml heat-killed Mycobacterium tuberculosis into the left para-lumbar region. Immediately thereafter, and again at 48 h, the mice are inoculated intraperitoneal (IP) with 0.5 ml of pertussis toxin (400 ng). Seven days later, the mice are further challenged with an additional injection of MOG35-55 peptide in CFA injected into the right para-lumbar region.
Mice are treated with SC injection of 200 (μg glatiramer acetate (Copaxone®) per animal in mannitol 4% emulsion on day 0. Part of the animals are continued to be treated with Zn-DFO as IP injections, 2 mg/kg or 6 mg/kg, thrice a week till the end of the experiment (Day 28). Two additional groups of mice are treated with Zn-DFO analogously, but without the preceding injection with glatiramer acetate. The severity of the disease is assessed using the scale shown in Table 2 (Bittner et al. 2014).

[2] = Blood-brain barrier penetration: DFO concentration in rat brain after IP injection; type: in vivo; details: for fraction of DFO that infiltrated the brain / DFO (mg/g organ) / DFO (mg/whole organ): SD rats; for fraction of DFO that infiltrated the brain: 90 min; for DFO (mg/g organ): brain; for DFO (mg/whole organ): whole brain
Description: In this study, the ability of the Zn-DFO complex to infiltrate into the brain was examined. Rats were injected intraperitoneally (IP) with increasing amounts of DFO alone or Zn-DFO complex, and the concentration of DFO was measured in their brains, thus monitoring their infiltrability.
(§1) In particular, male Sprague-Dawley (SD) rats (300 g average body weight, 3 animals per group) were injected IP with DFO (250, 500, or 1000 mg/kg body weight). For comparison, Zn-DFO solution in freshly prepared saline was injected IP (250, 500, or 1000 mg/kg body weight, which are equivalent to 221, 442, or 883 mg DFO/kg body weight, respectively).
(§2) The behavior of the rats was monitored for 90 min following the injection. Then, the animals were euthanized using an injection of ketamine-xylazine, and their hearts, livers, left kidneys, and brains were excised and weighted. Brain samples (300 mg tissue) were washed homogenized in 3 ml Lysis buffer. Tissue homogenates were incubated at 110° C. for 5 min and centrifuged for 5 min at 14,500 relative centrifugal force (RCF). An equal volume of 40% trichloroacetic acid (TCA) solution was added, forming a solution containing 20% TCA, which was vortexed and centrifuged again. The supernatants were transferred into cuvettes, and DFO concentration was spectrophotometrically measured, after addition of 10 mM of ferric iron solution (as a weak complex of iron, ferric-nitrilo-triacetate, at pH=7.4), and scanning the range of λ=380−580 nm. The final concentration was calculated according to the Beer-Lambert law, using εDFO=2460 M^−1cm^−1: the total amount of DFO per gram tissue and per whole brain were calculated.

[3] = Behavior of rats monitored for 90 min following IP injection; type: in vivo, rat; details: the three doses (250, 500, 1000 mg/kg IP)
Description: as §1, §2

[4] = 90 min after IP injection of 250 mg/kg
[5] = 90 min after IP injection of 500 mg/kg
[6] = 90 min after IP injection of 1000 mg/kg

Compound | effect on the main outcome measures in MS (disease progression) (MS; La Mantia et al., 2010) | reduction of relapses (MS; relapsing-remitting MS, Hassan-Smith et al., 2011) | day on which peak clinical score is reached [1] [days] | onset of the disease [1] [days] | fraction of DFO that infiltrated the brain ([2]; IP 250 mg/kg) [%] | fraction of DFO that infiltrated the brain ([2]; IP 500 mg/kg) [%] | fraction of DFO that infiltrated the brain ([2]; IP 1000 mg/kg) [%] | DFO (mg/g organ) [2, 4] [mg/g organ] | DFO (mg/g organ) [2, 5] [mg/g organ] | DFO (mg/g organ) [2, 6] [mg/g organ] | fraction of DFO that had infiltrated into the brain ([2]; corresponding doses (250, 500, 1000 mg/kg IP), limited sensitivity of the instrument) [%] | DFO (mg/whole organ) [2, 4] [mg/whole organ] | DFO (mg/whole organ) [2, 5] [mg/whole organ] | DFO (mg/whole organ) [2, 6] [mg/whole organ] | rats' behavior after injection [3]
glatiramer acetate | did not show any beneficial effect | approximately 30% | 17 | 14 | – | – | – | – | – | – | – | – | – | – | –
CC(=O)N(O)CCCCCNC(=O)CCC(=O)N(O)CCCCCNC(=O)CCC(=O)N(O)CCCCCN [DFO, N′-[5-(acetyl-hydroxy-amino)pentyl]-N-[5-[3-(5-aminopentyl-hydroxy-carbamoyl)propanoylamino]pentyl]-N-hydroxy-butane diamide] | – | – | – | – | <0.0015 | <0.0015 | 0.002 | <0.005 | <0.005 | 0.008 ± 0.004 | ≤ 0.002 | <0.005 | <0.005 | 0.019 ± 0.008 | no changes in rats' behavior
